Entries after “also recorded” stand apart in the source; their conditions may differ. Like-named read-outs stand apart in the source and are kept apart here.
What was measured:
[1] = system: leptin promoter; assay: Leptin promoter luciferase construct transfected into 3T3-L1 cells; assay type: cell-based
[2] = system: isolated rat adipocytes; assay: Leptin secretion/production by isolated cultured rat adipocytes (RIA); assay type: cell-based; details: for Leptin (ng) Produced over 96 h / [Leptin] (ng/ml) at 96 h: isolated rat adipocytes, 96 h culture; for increase of leptin production/secretion: PDH kinase inhibitors vs control: DTNB 100 μM, NEM 0.1 μM, DCA 2 mM; for increase of leptin secretion/production: Malate 2-5 mM, fumarate 5 mM, alone or in combination, low insulin and glucose, over control
Protocol: (§1) Cell isolation/preparation: Adipocytes are prepared from epididymal fat pads from male Sprague-Dawley rats weighing 300-600 g. Epididymal fat depots are resected from halothane anesthetized rats under aseptic conditions and adipocytes are isolated by collagenase digestion by the Rodbell method (Rodbell M. Metabolism of isolated fat cells. I. Effects of hormones on glucose metabolism and lipolysis. J Biol Chem. 1964; 239: 375-380), with minor modifications as previously described (Mueller W M, Gregoire F M, Stanhope K L, Mobbs C V, Mizuno T M, Warden C H, Stem J S, Havel P J. Evidence that glucose metabolism regulates leptin secretion from isolated adipocytes. Endocrinology 139: 551-558, 1998; Mueller W M, Stanhope K L, Gregoire F, Evans J L, Havel P J. Effects of metformin and vanadium on leptin secretion from cultured rat adipocytes. Obesity Res. 8: 530-539, 2000; Medina E A, Stanhope K L, Mizuno T M, Mobbs C V, Gregoire F, Hubbard N E, Erickson K L, Havel P J. Effects of tumor necrosis factor alpha on leptin secretion and gene expression: relationship to changes of glucose metabolism in isolated rat adipocytes. Int J Obes Relat Metab Disord. 23: 896-903, 1999.). The isolated adipocytes are then incubated for 30 minutes at 37 C before being plated and cultured on Matrigel-coated plates.
(§2) Adipocyte Culture: Adipocytes are maintained in culture anchored to a basement membrane matrix (Matrigel, Becton Dickinson, Franklin Lakes, N.J.) or collagen from Cohesion Technologies, (Palo Alto, Calif.). Although all in vitro systems have inherent advantages and disadvantages, advantages of this system compared with cultures containing free-floating adipocytes are that the matrix simulates their normal basement membrane attachment and that the cells are maintained in close proximity to each other, allowing direct cell to cell contact. Together the cell contact and basement membrane attachment help to maintain differentiation, since adipocytes have a strong tendency to dedifferentiate in long-term (>24 h) culture. In addition, the matrix and the small amount of serum in the media both contain growth factors, which are also likely to help in maintaining cell differentiation. Furthermore, the adipocytes in this system are not exposed to toxic levels of oxygen at the interface of the media and the incubator atmosphere, as opposed to free-floating adipocytes which aggregate at the surface of the media. An advantage of the system over those containing minced adipose tissue is that all of the cells in the culture are equally exposed to the nutrients and the oxygen dissolved in the media. Thus, although clearly different from the in vivo situation, this system provides a more physiological environment than most systems for maintaining adipocytes in long-term culture.
(§3) In culturing each suspension, Matrigel is first thawed on ice to a liquid and uniformly applied to the surface of culture dishes (300 μl Matrigel/35 mm well). After the incubation period, 150 μl of the adipocyte suspension (2:1 ratio of packed cells to media) are plated on the Matrigel or collagen matrix. Adipocytes from each suspension are thoroughly mixed with a transfer pipette before plating to insure that a similar number adipocytes with a similar size distribution are added to the control and experimental wells for each suspension. The warmth of the added cells and buffer causes the Matrigel to gel around the adipocytes, or the neutralization of the acidic pH of the collagen solution to 7.0 solidifies the collagen, and both of these techniques effectively anchor the adipocytes to the culture dish. After a 30 minute incubation at 37° C., 2 ml of warm culture medium is added. The cells are maintained in an incubator at 37° C. for 96 hours with 6% CO2. Aliquots of adipocytes from each animal are divided into wells, with the different concentrations of insulin or other agents to be tested. In each plate an appropriate control well contains adipocytes from the same animal. […]

[3] = system: isolated rat adipocytes; assay: Glucose oxidation: incorporation of 14C-glucose into CO2 by isolated rat adipocytes; assay type: cell-based
Protocol: Substrate Oxidation: Oxidation is measured using a modification of the method of Rodbell (Rodbell, 1964) and a modification of the cell culture system described by Bottcher and Furst (Bottcher, 1996). Briefly, adipocytes are isolated, counted and sized as previously described. Adipocytes are plated as described except they are placed in a sterile 20 ml scintillation vial instead of a well. Two ml of treatment media containing [U-^14C]-substrate (0.3 uCi/ml; glucose, fatty acids, malate, fumarate, pyruvate) is added to the vials. The vials are filled with 95% O2-5% CO2 gas and capped with rubber stoppers fitted with a hanging center well. Each well contains a 2×8 cm strip of Whatman No. 1 paper. Vials are maintained at 37° C. for 48 hr. After 48 hr, a sample of media is removed from each vial using a 4 inch, 23 gauge needle. Using another syringe and 23 gauge needle, 200 ul of sodium benzethonium is placed onto the paper strip and hanging well to capture CO2. Concentrated sulfuric acid is added to the vial in order to lyse cells and liberate all CO2 from the collagen matrix. After 24 hours, the hanging well and paper are transferred to another vial containing scintillation fluid and counted. The data are expressed as % DPM recovered as CO2 of the total DPM remaining in the media at 48 hours and as micromoles of substrate oxidized over time.

[4] = system: isolated rat adipocytes; assay: Lactate production and proportion of glucose anaerobically metabolized to lactate in isolated cultured rat adipocytes; assay type: cell-based; details: for Glucose to Lactate (%) / Lactate Produced (μg) over 96 h: isolated rat adipocytes, 96 h culture
Protocol: as §1, §2, §3

[5] = system: isolated, cultured adipocytes; assay: Fatty acid oxidation: incorporation of 14C-labeled oleate into CO2 by cultured adipocytes; assay type: cell-based, rat
Protocol: Experiments were also carried out to examine fatty acid oxidation by measuring the incorporation of ^14C-labeled oleate into CO2. […] Therefore, to further examine the potential role of fatty acid oxidation adipocytes were incubated with L-carnitine, a cofactor of the rate-limiting step for fatty acid transport into the mitochondria via carnitine-palmitoyl-tranferase (CPT).
Substrate Oxidation: Oxidation is measured using a modification of the method of Rodbell (Rodbell, 1964) and a modification of the cell culture system described by Bottcher and Furst (Bottcher, 1996). Briefly, adipocytes are isolated, counted and sized as previously described. Adipocytes are plated as described except they are placed in a sterile 20 ml scintillation vial instead of a well. Two ml of treatment media containing [U-^14C]-substrate (0.3 uCi/ml; glucose, fatty acids, malate, fumarate, pyruvate) is added to the vials. The vials are filled with 95% O2-5% CO2 gas and capped with rubber stoppers fitted with a hanging center well. Each well contains a 2×8 cm strip of Whatman No. 1 paper. Vials are maintained at 37° C. for 48 hr. […] After 24 hours, the hanging well and paper are transferred to another vial containing scintillation fluid and counted. The data are expressed as % DPM recovered as CO2 of the total DPM remaining in the media at 48 hours and as micromoles of substrate oxidized over time.

[6] = system: isolated rat adipocytes; assay: Glucose utilization (uptake) by isolated cultured rat adipocytes; assay type: cell-based; details: for Glucose Uptake (μg) over 96 h: isolated rat adipocytes, 96 h culture
Protocol: as §1, §2, §3

[7] = system: isolated rat adipocytes; assay: Incorporation of glucose carbon into triglyceride in cultured adipocytes; assay type: cell-based
Protocol: Incorporation of Glucose Carbon into Triglyceride: To measure glucose incorporation into triglyceride, cultures are exposed to media containing 0.01 uCi/ml of ^14C-glucose. After 96 hr, media and extracellular lipid is removed from the well and methanol added. Then scrape the collagen-cell matrix from the well and transfer into a 50 ml glass tube. Rinse the well and scrape again in methanol to assure complete transfer of cells. Total triglycerides will be extracted using the Folch method (Folch, 1957). An aliquot of the lipid extract will be placed into vials containing scintillation fluid then radioactivity will be measured.
The first measurement is used to calculate the amount of glucose incorporated into triglycerides. Another aliquot of the lipid extract is placed into pre-weighed aluminum pans to determine the total amount of triglyceride per well. The remaining lipid is saponified and acidified to separate the glycerol and fatty acids. An aliquot of the lipid extract is placed into vials containing scintillation fluid and counted. This second count represents the ^14C-glucose incorporation into fatty acids. By subtraction, the amount that was incorporated into triglyceride though glycerol is also determined. Glucose incorporation into triglyceride and into the fatty acid portion of the triglyceride are calculated by multiplying disintegration per min by total ug of glucose/well over the total DPM/well.

[8] = system: isolated rat adipocytes; details: cited from earlier work; for effect on leptin secretion (in words): citrate
[9] = system: cultured rat adipocytes; assay: Adiponectin secretion by isolated cultured rat adipocytes over 96 h; assay type: cell-based; details: DTNB 100 μM, DCA 2 mM; 96 h culture, n=6
Protocol: Several studies have reported that thiazolidenediones (TZDs), agonists of PPARγ, increase adiponectin expression and circulating levels in animals (Maeda, 2001; Yamauchi, 2001a; Ye, 2003). TZD (10 μM Troglitazone) stimulated of adiponectin secretion from cultured rat adipocytes from 3 different depots (n=6). Mesenteric fat produced the largest amount of adiponectin over 96 hours in culture. (FIG. 5A). Adiponectin secretion from both the control- and TZD-treated adipocytes was well correlated with the glucose utilization (control, r=0.79; p<0.001); (TZD-treated, r=0.84, p=<0.0001, FIG. 5B) showing that, similar to leptin production, glucose metabolism also is involved in the regulation of adiponectin production by adipocytes.
Insulin increased adiponectin production from 3 different fat depots, however as in the experiments with troglitazone, the mesenteric depot produced the most adiponectin (FIG. 6B). Like leptin, both basal and insulin-stimulated adiponectin secretion was highly correlated to glucose utilization (r=0.91, p<0.0001) (FIG. 6C), and inversely related to the proportion of glucose metabolized to lactate (r=−0.81, p<0.0001) (FIG. 6D).
Also paralleling the regulation of leptin, adiponectin secretion by isolated cultured adipocytes was increased during 96 h culture by inhibitors of PDH-K. DTNB (100 μM) increased adiponectin secretion by 40% (p<0.03, n=6, FIG. 7A). DCA (2 mM) increased adiponectin secretion by 23% (p<0.025, n=6, FIG. 7B). The increase in adiponectin induced by DTNB was highly correlated with glucose utilization (r=0.95, p<0.004). Furthermore in adipocytes transfected with antisense directed at PDH-K, adiponectin secretion was stimulated by 24.3±8.4%, p<0.05, n=7, FIG. 7C).
as §1
Adipocyte Culture: Adipocytes are maintained in culture anchored to a basement membrane matrix (Matrigel, Becton Dickinson, Franklin Lakes, N.J.) or collagen from Cohesion Technologies, (Palo Alto, Calif.). […]

[10] = DCA 2.0 mM + insulin 0.48 nM vs control (insulin only)
[11] = DTNB 100 μM, NEM 0.1 μM, DCA 2 mM
[12] = NEM 0.1 μM + insulin 0.48 nM vs control (insulin only)

## O=CC[C@@H](O)[C@H](O)[C@H](O)CO [2-DG, 2-deoxy-D-glucose]
[1]; insulin 10 nM, 2-DG 10 mg/dl
  effect on activity of control plasmid (in words): unaffected
[1]; insulin 0.1 to 10 nM, 2-DG 10 mg/dl on basal and insulin-stimulated (10 nM) activity
  effect on leptin promoter activity (in words): markedly inhibited; also recorded: completely blocked
[2]; 2-DG treatment
  effect on leptin secretion and ob gene expression (in words): suppressed

## C[N+](C)(C)C[C@H](O)CC(=O)[O-] [Carnitine, L-carnitine]
[3]; L-carnitine
  effect on glucose oxidation (in words): inhibited
[4]; Carnitine 20 mM
  effect on proportion of glucose metabolized to lactate (in words): increased
[5]; Carnitine 20 mM, n=7, percent of control
  increase of fatty acid oxidation: 50%
[5]; L-carnitine
  effect on fatty acid oxidation (in words): increased
[6]; Carnitine 20 mM
  effect on glucose utilization (in words): inhibited
[7]; Carnitine 20 mM
  effect on incorporation of labeled glucose into TG/lipid (in words): inhibited
[2]; Carnitine 20 mM, n=12
  effect on leptin secretion (in words): modestly increased

## O=C(O)CC(O)(CC(=O)O)C(=O)O [Citrate]
[8]; low glucose and insulin concentration
  effect on leptin secretion (in words): stimulates
[8]; presence of high insulin and glucose
  effect on leptin secretion (in words): does not affect

## O=C(O)C(Cl)Cl [DCA, Dichloroacetate]
[4]; [10]
  Change in Parameter: Glucose to Lactate (%): −16.1 ± 1.3%
  Change in Parameter: Lactate Produced (μg) over 96 h: -181 ± 10 µg
[4]; DCA 2.0 mM + insulin 0.48 nM
  Glucose to Lactate (%): 7.9 ± 0.9%
  Lactate Produced (μg) over 96 h: 81 ± 4 µg
[6]; [10]
  Change in Parameter: Glucose Uptake (μg) over 96 h: -46 ± 57 µg
[6]; DCA 2.0 mM + insulin 0.48 nM
  Glucose Uptake (μg) over 96 h: 1082 ± 117 µg
[9]
  increase of adiponectin secretion: 23%
[2]; [10]
  % ΔLeptin Produced over 96 h: +17.6 ± 4.7%
  % Δ[Leptin] (ng/ml) at 96 h: +17.9 ± 7.9%
  Change in Parameter: Leptin (ng) Produced over 96 h: +12.9 ± 3.6 ng
  Change in Parameter: [Leptin] (ng/ml) at 96 h: +3.6 ± 1.0 ng/ml
[2]; DCA 2.0 mM + insulin 0.48 nM
  Leptin (ng) Produced over 96 h: 88.3 ± 7.5 ng
  [Leptin] (ng/ml) at 96 h: 27.0 ± 2.6 ng/mL
[2]; cultured adipocytes
  increase of leptin production/secretion: 20-25%

## O=C(O)CC(O)C(=O)O (stereo not shown) [Malate]
[2]
  increase of leptin secretion/production: 20%
[2]; listed as malate
  increase of leptin secretion/production: +20%

## CCN1C(=O)C=CC1=O [NEM, N-ethylmaleimide]
[4]; [11]
  effect on glucose not converted to lactate or incorporated into TG (OTHER; glucose flux into oxidation), by subtraction (in words): increased
  effect on proportion of glucose anaerobically metabolized to lactate (in words): decreased
[4]; DTNB 100 μM, NEM 0.1 μM, DCA 0.1 to 5.0 mM
  effect on lactate production (in words): without any increase
[4]; [12]
  Change in Parameter: Glucose to Lactate (%): −6.9 ± 2.3%
  Change in Parameter: Lactate Produced (μg) over 96 h: -10 ± 13 µg
[4]; NEM 0.1 μM + insulin 0.48 nM
  Glucose to Lactate (%): 13.6 ± 1.5%
  Lactate Produced (μg) over 96 h: 178 ± 11 µg
[6]; [11]
  effect on total / insulin-mediated glucose utilization (in words): increased
[6]; [12]
  Change in Parameter: Glucose Uptake (μg) over 96 h: +348 ± 114 μg
[6]; NEM 0.1 μM + insulin 0.48 nM
  Glucose Uptake (μg) over 96 h: 1399 ± 132 µg
[7]; [11]
  effect on proportion of glucose incorporated into TG (in words): without affecting
[2]; [12]
  % ΔLeptin Produced over 96 h: +26.6 ± 6.2%
  % Δ[Leptin] (ng/ml) at 96 h: +25.3 ± 6.3%
  Change in Parameter: Leptin (ng) Produced over 96 h: +14.2 ± 4.2 ng
  Change in Parameter: [Leptin] (ng/ml) at 96 h: +4.0 ± 1.0 ng/ml
[2]; NEM 0.1 μM + insulin 0.48 nM
  Leptin (ng) Produced over 96 h: 63.4 ± 8.2 ng
  [Leptin] (ng/ml) at 96 h: 18.4 ± 2.4 ng/mL
[2]; PDH kinase inhibitors DTNB, NEM, DCA, cultured adipocytes
  effect on leptin production/secretion (in words): increase
[2]; cultured adipocytes
  increase of leptin production/secretion: 25%

## CCCCCCCC/C=C\CCCCCCCC(=O)O [oleate, oleic acid]
[3]; Rattus norvegicus, Adipocyte, oleate 2 mM, n=7
  inhibition at 2000 µM: 30%
[3]; oleic acid 2 mM, low glucose
  effect on glucose oxidation (in words): inhibits
[2]; oleate/oleic acid 2 mM, low glucose
  effect on leptin secretion (in words): increased
[2]; oleate/oleic acid 2 mM, low glucose, listed as oleic acid
  effect on leptin secretion (in words): increases

## [F-].[Na+] [sodium fluoride]
[8]; glycolysis suppressed with sodium fluoride
  effect on leptin expression and secretion (in words): reduced
